Values joined by “and” are separate entries in the source; they are usually repeats but may differ in a detail not shown here. Identical values can stand only once.
Columns and labels:
[1] = target: T1, A-form of the human progesterone receptor (Homo sapiens, UniProt P06401); assay: hPR binding assay (competitive radioligand binding)
T1 sequence (P06401 1-769 isoform P06401-2): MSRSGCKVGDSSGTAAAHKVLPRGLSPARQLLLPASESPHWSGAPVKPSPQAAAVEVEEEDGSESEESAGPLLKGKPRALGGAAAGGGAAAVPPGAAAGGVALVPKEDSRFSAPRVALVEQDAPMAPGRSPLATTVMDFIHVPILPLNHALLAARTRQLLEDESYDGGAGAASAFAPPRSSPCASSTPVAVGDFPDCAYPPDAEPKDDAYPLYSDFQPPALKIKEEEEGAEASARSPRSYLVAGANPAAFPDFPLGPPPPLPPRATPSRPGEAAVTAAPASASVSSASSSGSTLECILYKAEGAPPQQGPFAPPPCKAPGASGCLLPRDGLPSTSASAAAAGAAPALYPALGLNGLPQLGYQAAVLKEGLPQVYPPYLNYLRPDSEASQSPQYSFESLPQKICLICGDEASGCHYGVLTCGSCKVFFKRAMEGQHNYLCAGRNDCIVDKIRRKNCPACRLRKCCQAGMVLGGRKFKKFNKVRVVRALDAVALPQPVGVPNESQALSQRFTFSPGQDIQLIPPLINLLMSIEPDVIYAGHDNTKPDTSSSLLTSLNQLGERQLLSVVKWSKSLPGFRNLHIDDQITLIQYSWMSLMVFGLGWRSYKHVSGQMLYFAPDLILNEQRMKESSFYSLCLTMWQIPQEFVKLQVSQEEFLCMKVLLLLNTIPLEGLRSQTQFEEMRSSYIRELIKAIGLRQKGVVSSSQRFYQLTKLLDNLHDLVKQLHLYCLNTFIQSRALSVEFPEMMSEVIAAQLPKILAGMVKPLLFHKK

[2] = test system: rat uterine decidualization; assay: Rat decidualization assay; format: in vivo; settings: rat decidualization, antiprogestational mode, read-out: Decid. IC50 mg/kg
Description: 1. Rat Decidualization Assay
The animals are treated once daily for seven days.
Uteri are removed and trimmed of fat.
Decidual response: [(D-C)/C]×100%

[3] = test system: T47D cells; assay: T47D cell proliferation assay (BrdU incorporation); format: cell-based; settings: half-maximal increase in BrdU incorporation, individual studies
Description: 3. T47D Cell Proliferation Assay
The objective of this assay is the determination of progestational and antiprogestational potency by using a cell proliferation assay in T47D cells. A compound's effect on DNA synthesis in T47D cells is measured.
DMEM:F12 (1:1) (GIBCO, BRL) supplemented with 10% (v/v) fetal bovine serum (not heat-inactivated), 100 U/ml penicillin, […], and 2 mM GlutaMax (GIBCO, BRL).
Minimum Essential Medium (MEM) (#51200-038GIBCO, BRL) phenol red-free supplemented with 0.5% charcoal stripped fetal bovine serum, 100 U/ml penicillin, 200 mg/ml streptomycin, and 2 mM GlutaMax (GIBCO, BRL).
Stock T47 D cells are maintained in growth medium For BrdU incorporation assay, cells are plated in 96-well plates (Falcon, Becton Dickinson Labware) at 10,000 cells/well in growth medium. […]
At the end of BrdU labeling, the medium is removed and BrdU incorporation is measured using a cell proliferation ELISA kit (#RPN 250, Amersham Life Science) according to manufacturer's instructions. […] Then 25 μl of 1 M sulfuric acid is added to each well to stop color reaction and optical density is read in a plate reader at 450 nm within 5 min.
Square root-transformed data are used for analysis of variance and nonlinear dose response curve fitting for both agonist and antagonist modes. […] EC50 or IC50 values are calculated from the retransformed values. […]

SMILES	melting point	Ki [1]	EC50 [3]	EC50 ([3]; Homo sapiens, T47D)	inhibition in vivo at 3 mg/kg ([2]; @ 3 mg/kg)	inhibition in vivo at 10 mg/kg [2]
O=C1Nc2ccc(-c3ccc([N+](=O)[O-])[nH]3)cc2C12CCCCC2 [Example 44, 5′-(5-Nitro-1H-pyrrol-2-yl)spiro[cyclohexane-1,3′-[3H]indol]-2′(1′H)-one]	278 °C (dec.)	123 nM			50%	
C[C@H](O)C(=O)[C@@]1(C)CC[C@H]2[C@@H]3CCC4=CC(=O)CCC4=C3CC[C@@]21C [Trimegestone]			0.017 nM and 0.014 nM and 0.019 nM			
N#Cc1ccc(-c2ccc3c(c2)C2(CCCCC2)C(=O)N3)s1 [Example 35]	225 to 228 °C	22 nM				50%
CC(=O)O[C@]1(C(C)=O)CC[C@H]2[C@@H]3C[C@H](C)C4=CC(=O)CC[C@]4(C)[C@H]3CC[C@@]21C [MPA, medroxyprogesterone acetate]				0.019 nM		

Further lines, with some results ahead:

melting point	Ki [1]	EC50 [3]	EC50 ([3]; Homo sapiens, T47D)	SMILES	inhibition in vivo at 3 mg/kg ([2]; @ 3 mg/kg)	inhibition in vivo at 10 mg/kg [2]
	19 nM			N#Cc1cc(-c2ccc3c(c2)C2(CCCCC2)C(=O)N3)cs1 [Example 34, 4-(1,2-Dihydro-2-oxospiro[cyclohexane-1,3-[3H]indol]-5-yl)-2-thiophenecarbonitrile]		50%
191 to 193 °C	9 nM			O=C1Nc2ccc(-c3cc(F)cc([N+](=O)[O-])c3)cc2C12CCCCC2 [Example 32, 5-(3-Fluoro-5-nitrophenyl)spiro[cyclohexane-1,3-[3H]indol]-2(1H)-one]		60%
200 to 203 °C	4.8 nM			Cc1cc(C#N)sc1-c1ccc2c(c1)C1(CCCCC1)C(=O)N2 [Example 36, 4-Methyl-5-(2′-oxo-2′,3′-dihydrospiro[cyclohexane-1,3′-[3H]indol]-5′-yl)-2-thiophene carbonitrile]		50%

Reference: patent publication US6391907B1, “Indoline derivatives” (American Home Products Corporation, priority 1999, dated 2002)
